Experimental data as given in US8071600B2, “Derivatives of 4-piperazin-1-yl-4-benzo[B]thiophene suitable for the treatment of CNS disorders” (Otsuka Pharmaceutical Co., Ltd., priority 2005, dated 2011).

Tests used:
Dopamine D2 receptor = target: T1, Dopamine D2 receptor (Rattus norvegicus, UniProt P61169); test: Dopamine D2 receptor binding assay ([3H]-raclopride); settings: Dopamine D2 receptor binding test, rat corpus striatum membrane, Ki calculated from IC50 by Cheng-Prussoff formula
T1 construct: from tissue; host or cells: Wistar rat brain, corpus striatum membranes
Description: 1) Dopamine D2 Receptor Binding Assay
The assay was performed according to the method by Kohler et al. (Kohler C, Hall H, Ogren S O and Gawell L, Specific in vitro and in vivo binding of 3H-raclopride. A potent substituted benzamide drug with high affinity for dopamine D-2 receptors in the rat brain. Biochem. Pharmacol., 1985; 34: 2251-2259).
Wistar male rats were decapitated, the brain was retrieved immediately and corpus striatum was taken out. It was homogenized in 50 mM tris(hydroxymethyl)aminomethane (Tris)-hydrochloric acid buffer (pH 7.4) of a volume 50 times of the weight of the tissue using a homogenizer with a high-speed rotating blade, and centrifuged at 4° C., 48,000×g for 10 minutes. The obtained precipitate was suspended again in the above-described buffer of a volume 50 times of the weight of the tissue and after incubated at 37° C. for 10 minutes, centrifuged in the above-described condition. The obtained precipitate was suspended in 50 mM (Tris)-hydrochloric acid buffer (containing 120 mM NaCl, 5 mM KCl, 2 mM CaCl2, 1 mM MgCl2, pH 7.4) of a volume 25 times of the weight of the tissue and preserved by freezing at −85° C. till it was used for binding assay as a membrane specimen.
The binding assay was performed using 40 μl of the membrane specimen, 20 μl of [^3H]-raclopride (final concentration 1 to 2 nM), 20 μl of a test drug and 50 mM Tris-hydrochloric acid buffer (containing 120 mM NaCl, 5 mM KCl, 2 mM CaCl2, 1 mM MgCl2, pH 7.4) so that the total amount was 200 μl (final dimethylsulfoxide concentration 1%). The reaction was performed at room temperature for 1 hour and terminated by conducting suction filtration with a cell harvester on a glass fiber filter plate. The filter plate made of glass fiber was washed with 50 mM Tris-hydrochloric acid buffer (pH 7.4), and after dried, a microplate liquid scintillation cocktail was added and the radioactivity was measured with a microplate scintillation counter. Radioactivity in the presence of 10 μM (+)-butaclamol hydrochloride was assumed as nonspecific binding.
(§1) IC50 value was calculated from concentration-dependent reaction using a non-linear analysis program. Ki value was calculated from IC50 value using Cheng-Prussoff formula.

[1] = target: T2, Serotonin 5-HT2A receptor (Rattus norvegicus, UniProt P14842); test: Serotonin 5-HT2A receptor binding assay ([3H]-Ketanserin); settings: Serotonin 5-HT2A receptor binding test, rat frontal cortex membrane, Ki calculated from IC50 by Cheng-Prussoff formula
T2 construct: from tissue; host or cells: Wistar rat brain, frontal cortex membranes
Description: 2) Serotonin 5-HT2A Receptor Binding Assay
The assay was performed according to the method by Leysen J E et al. (Leysen J E, Niemegeers C J E, Van Nueten J M and Laduron P M. [3H] Ketanserin (R 41 468), a selective 3H-ligand for serotonin 2 receptor binding sites. Mol. Pharmacol., 1982, 21: 301-314).
Wistar male rats were decapitated, the brain was retrieved immediately and frontal cortex was taken out. It was homogenized in 0.25 M sucrose of a volume 10 times of the weight of the tissue using a Teflon glass homogenizer, and centrifuged at 4° C., 1,000×g for 10 minutes. The obtained supernatant was transferred to another centrifuge tube and suspended in 0.25 M sucrose of a volume 5 times of the weight of the tissue and the precipitate was centrifuged in the above-described condition. The obtained supernatant was combined with the supernatant obtained above and adjusted to a volume 40 times of the weight of the tissue with 50 mM Tris-hydrochloric acid buffer (pH 7.4), and centrifuged at 4° C., 35,000×g for 10 minutes. The obtained precipitate was suspended again in the above-described buffer of a volume 40 times of the weight of the tissue and centrifuged in the above-described condition. The obtained precipitate was suspended in the above-described buffer of a volume 20 times of the weight of the tissue and preserved by freezing at −85° C. till it was used for binding assay as a membrane specimen.
The binding assay was performed using 40 μl of the membrane specimen, 20 μl of [^3H]-Ketanserin (final concentration 1 to 3 nM), 20 μl of a test drug and 50 mM Tris-hydrochloric acid buffer (pH 7.4) so that the total amount was 200 μl (final dimethylsulfoxide concentration 1%). The reaction was performed at 37° C. for 20 minutes and terminated by conducting suction filtration with a cell harvester on a glass fiber filter plate.
The filter plate made of glass fiber was washed with 50 mM Tris-hydrochloric acid buffer (pH 7.4), and after dried, a microplate liquid scintillation cocktail was added and the radioactivity was measured with a microplate scintillation counter. Radioactivity in the presence of 10 μM spiperone was assumed as nonspecific binding.
as §1

[2] = system: serotonin (5-HT) uptake by rat brain synaptosome; test: Serotonin (5-HT) uptake inhibitory activity by rat brain synaptosome; type: biochemical; settings: test compound 300 nM, tritium labeled 5-HT 8 nM, 10 minutes uptake at 37° C.
Description: Measurement of serotonin (5-HT) uptake inhibitory activity of a test compound by rat brain synaptosome
Wistar male rats were decapitated, the brain was retrieved and frontal cortex was dissected out, and it was homogenized in 0.32 M sucrose solution of a weight 20 times of the weight of the tissue using a Potter type homogenizer. The homogenate was centrifuged at 4° C., 1,000×g for 10 minutes, the obtained supernatant was further centrifuged at 4° C., 20,000×g for 20 minutes, and the pellet was suspended in an incubation buffer (20 mM Hepes buffer (pH 7.4) containing 10 mM glucose, 145 mM sodium chloride, 4.5 mM potassium chloride, 1.2 mM magnesium chloride, 1.5 mM calcium chloride), which was used as crude synaptosome fraction.
5-HT uptake reaction was performed in a volume of 200 μl using a 96-well round bottom plate and pargyline (final concentration 10 μM) and sodium ascorbate (final concentration 0.2 mg/ml) were contained in the incubation buffer upon reaction and used.
Incubation buffer (total counting), non-labeled 5-HT (final concentration 10 μM, non-specific counting) and the diluted test compound (final concentration 300 nM) were added to each well. One-tenth quantity of the final volume of the synaptosome fraction was added and after preincubated at 37° C. for 10 minutes, tritium labeled 5-HT solution (final concentration 8 nM) was added and uptake reaction was started at 37° C. The uptake time was 10 minutes and the reaction was terminated by vacuum filtration through a 96-well fiber glass filter paper plate, and after the filter paper was washed with cold normal saline, it was dried enough and Microscint0 (Perkin-Elmer) was added to the filter and remaining radioactivity on the filter was measured.
Serotonin uptake inhibitory activity (%) was calculated from the radioactivity of total counting as 100%, of non-specific counting as 0%, and of counting obtained with test compound. % of inhibition of 5-HT(%)=100−[(Count obtained with test compound−Nonspecific count (0% Uptake))/(Total count (100% Uptake)−Nonspecific count (0% Uptake))]×100 The results are shown in the next Table 314.

T1 sequence (P61169 whole entry): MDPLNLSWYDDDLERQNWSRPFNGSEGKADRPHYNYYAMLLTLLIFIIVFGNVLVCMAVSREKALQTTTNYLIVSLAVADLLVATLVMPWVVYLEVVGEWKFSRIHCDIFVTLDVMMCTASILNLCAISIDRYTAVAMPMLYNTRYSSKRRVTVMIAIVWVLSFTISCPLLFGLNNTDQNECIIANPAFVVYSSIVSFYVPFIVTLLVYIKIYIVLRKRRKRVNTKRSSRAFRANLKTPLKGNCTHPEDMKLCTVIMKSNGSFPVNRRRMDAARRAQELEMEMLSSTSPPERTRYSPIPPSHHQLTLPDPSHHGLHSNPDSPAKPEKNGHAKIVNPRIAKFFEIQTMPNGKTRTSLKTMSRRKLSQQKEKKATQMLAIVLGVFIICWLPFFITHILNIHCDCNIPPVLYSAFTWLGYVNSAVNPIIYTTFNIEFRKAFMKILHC
T2 sequence (P14842 whole entry): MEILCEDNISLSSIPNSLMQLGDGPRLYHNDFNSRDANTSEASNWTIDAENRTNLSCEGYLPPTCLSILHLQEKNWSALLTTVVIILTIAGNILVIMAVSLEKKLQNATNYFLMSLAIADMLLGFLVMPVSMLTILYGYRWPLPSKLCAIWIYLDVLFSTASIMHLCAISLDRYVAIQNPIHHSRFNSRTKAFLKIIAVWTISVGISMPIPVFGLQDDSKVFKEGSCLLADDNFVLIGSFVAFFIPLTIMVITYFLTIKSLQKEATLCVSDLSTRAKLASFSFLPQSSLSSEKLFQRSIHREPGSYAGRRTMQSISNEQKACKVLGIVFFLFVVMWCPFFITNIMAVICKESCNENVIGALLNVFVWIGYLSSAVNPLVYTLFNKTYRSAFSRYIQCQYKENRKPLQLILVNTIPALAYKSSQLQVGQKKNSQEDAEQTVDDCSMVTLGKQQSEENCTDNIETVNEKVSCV

| SMILES | Ki (Dopamine D2 receptor) [nM] | Ki [1] [nM] | melting point | Serotonin uptake inhibitory ratio (%) (300 nM) [2] |
| --- | --- | --- | --- | --- |
| CNC(=O)c1cc(OCCCN2CCN(c3cccc4sccc34)CC2)n(C)n1.Cl [Example 3, N-methyl-5-[3-(4-benzo[b]thiophen-4-yl-piperazin-1-yl)propoxy]-1-methyl-1H-pyrazole-3-carboxamide hydrochloride] | 1.5 | 6 | 228 to 232.5 °C (dec.) |  |
| CNC(=O)c1csc(OCCCN2CCN(c3cccc4sccc34)CC2)n1.Cl [Example 6, N-methyl-2-[3-(4-benzo[b]thiophen-4-yl-piperazin-1-yl)propoxy]thiazole-4-carboxamide hydrochloride] | 0.7 | 3.3 | 199.5 to 202.5 °C |  |
| COc1cc(N(C)C(C)=O)cc(C)c1OCCCN1CCN(c2cccc3sccc23)CC1.Cl [Example 14, N-{4-[3-(4-benzo[b]thiophen-4-yl-piperazin-1-yl)propoxy]-3-methoxy-5-methylphenyl}-N-methylacetamide hydrochloride] | 0.3 | 2.4 | 230 to 234 °C (dec.) |  |
| CNC(=O)c1ccc(OCCCN2CCN(c3cccc4sccc34)CC2)nc1 [Example 27] | 1.5 | 1 | 132.5 to 133.5 °C |  |
| NC(=O)c1cc(OCCCN2CCN(c3cccc4sccc34)CC2)ccn1 [Example 48] | 2.3 | 3.8 | 150 to 150.5 °C |  |
| CNC(=O)c1cnc(OCCCN2CCN(c3cccc4sccc34)CC2)cn1 [Example 61] | 5 | 4.9 | 116.5 to 118 °C |  |
| O=c1[nH]cnc2ccc(OCCCN3CCN(c4cccc5sccc45)CC3)cc12 [Example 94] | 2.4 | 2 | 213.1 to 218.5 °C |  |
| NC(=O)c1ccc(OCCCCN2CCN(c3cccc4sccc34)CC2)cc1 [Example 169] | 0.9 | 2.6 | 150 to 151.5 °C |  |
| CNC(=O)c1ccc(OCCCCN2CCN(c3cccc4sccc34)CC2)cc1 [Example 170] | 1 | 3.3 | 154 to 156 °C |  |
| CNC(=O)c1ccc(OCCCN2CCN(c3cccc4sccc34)CC2)c(C)c1 [Example 186] | 1.3 | 2 | 156.5 to 158 °C |  |
| COc1cc(C(N)=O)ccc1OCCCN1CCN(c2cccc3sccc23)CC1 [Example 190] | 1.2 | 0.6 | 162 to 163.5 °C |  |
| CNC(=O)c1ccc(OCCCN2CCN(c3cccc4sccc34)CC2)c(N)c1 [Example 232] | 1.1 | 2.7 | 124 to 125.5 °C |  |
| CNC(=O)c1cc(C)c(OCCCN2CCN(c3cccc4sccc34)CC2)c(C)c1 [Example 241] | 0.4 | 0.7 | 152.5 to 154.5 °C |  |
| COc1cc(C(N)=O)cc(OC)c1OCCCN1CCN(c2cccc3sccc23)CC1 [Example 243] | 0.2 | 0.5 | 147.5 to 148 °C |  |
| CNC(=O)c1cc(C)c(OCCCN2CCN(c3cccc4sccc34)CC2)c(OC)c1 [Example 252] | 0.3 | 0.3 | 141.5 to 142.5 °C |  |
| NC(=O)c1ccc(F)c(OCCCN2CCN(c3cccc4sccc34)CC2)c1 [Example 271] | 1.2 | 0.6 | 156.5 to 159 °C |  |
| COc1cc(CN(C)C)ccc1OCCCN1CCN(c2cccc3sccc23)CC1 [Example 301] | 0.2 | 0.4 | 101 to 103 °C |  |
| CCNC(=O)Cc1ccc(OCCCN2CCN(c3cccc4sccc34)CC2)cc1 [Example 323] | 1.5 | 0.7 | 112.5 to 113.5 °C |  |
| NC(=O)Cc1ccc(OCCCN2CCN(c3cccc4sccc34)CC2)cc1 [Example 340] | 1.9 | 4.8 | 149.5 to 150.5 °C |  |
| NS(=O)(=O)c1ccc(OCCCN2CCN(c3cccc4sccc34)CC2)cc1 [Example 394] | 3.8 | 4.7 | 199 to 203 °C |  |
| COc1cc(C(=O)NCC(OC)OC)cc(C)c1OCCCN1CCN(c2cccc3sccc23)CC1 [Example 802] | 0.6 | 1.4 |  | 96.6 |
| COc1cc(NC(=O)CN)cc(C)c1OCCCN1CCN(c2cccc3sccc23)CC1 [Example 1060] | 0.1 | 1.2 |  | 97.5 |
| COc1cc(N2CCOC2=O)cc(CO)c1OCCCN1CCN(c2cccc3sccc23)CC1 [Example 1071] | 0.1 | 1.3 |  | 94.4 |
| COc1cc(N2CCCC2)cc(C)c1OCCCN1CCN(c2cccc3sccc23)CC1 [Example 1076] | 1.2 | 12.4 |  | 87.8 |
| COc1cc(N2CCN(C(C)=O)CC2=O)cc(C)c1OCCCN1CCN(c2cccc3sccc23)CC1 [Example 1079] | 0.4 | 2.8 |  | 82.3 |
| COC(=O)N1CCN(c2cc(C)c(OCCCN3CCN(c4cccc5sccc45)CC3)c(OC)c2)C(=O)C1 [Example 1080] | 0.6 | 3.4 |  | 95.6 |
| COc1cc(N2CCN(C(C)=O)CC2)cc(C)c1OCCCN1CCN(c2cccc3sccc23)CC1 [Example 1083] | 0.3 | 1.5 |  | 96.3 |
| COC(=O)N1CCN(c2cc(C=O)c(OCCCN3CCN(c4cccc5sccc45)CC3)c(OC)c2)CC1 [Example 1086] | 1 | 5.8 |  | 98.6 |
